Experimental data reported in patent publication US8653236B2, “Therapeutic agents” (Inter-K Pty Limited, priority 2008, dated 2014).
Entries after “also recorded” stand apart in the source; their conditions may differ. No end group written: not given here.

Experiments:
Type in all cases: cell-based
[1] = system: HT29 human colorectal adenocarcinoma cells; assay: MTT cell proliferation assay, serum-containing
Procedure: (§1) HT29 (colorectal adenocarcinoma) (ATCC HTB-38; Manassas, Va.). SW480 colon carcinoma cells (ATCC) and MKN45 gastric carcinoma cells (Cancer Research Laboratory, University of New South Wales, Sydney, Australia) were maintained in DMEM (Invitrogen, Carlsbad, Calif.) containing 10% heat inactivated, filtered, fetal bovine serum (FBS; Invitrogen) and 20 mM HEPES buffer. Cell culture was carried out in an incubator set at 37° C. in 5% CO2 in air. Cells were grown to approximately 80% confluence in tissue culture flasks before being recovered from the substrate by trypsinisation. Briefly, resident culture media was removed and cells washed twice with sterile phosphate-buffered saline solution. A volume of 10× trypsin in EDTA (to provide 0.5% trypsin w/w) was added in sufficient quantity to cover the cells. When cells had sufficiently detached from the substrate, trypsin activity was stopped by the addition of 10% FBS in DMEM. Detached cells were transferred to a conical sterile tube and the suspended cells passaged ten times up and down through a 10 ml pipette to produce a single cell suspension suitable for counting. The number of viable cells was determined using a viability stain (Trypan blue) and counting using a haemocytometer.
(§2) The MTT cell proliferation assay measures cell proliferation rate and, in instances where cell viability is compromised, the assay indicates a comparative reduction in cell viability.
(§3) Single cell suspensions of viable trypsinised cells were seeded into 96-well tissue culture plates at a density of 2×10^3 cells per well in a volume of 100 ul of culture media with or without serum. A set of triplicate wells was prepared for each concentration of compound being tested. […]
(§4) Appropriate concentrations of compound were prepared by dilution of freshly prepared sterile 1 mM stock solutions in normal saline into cell culture media to give a final culture-well volume of 200 ul. […] Plates were gently vortexed to complete solubilisation of crystalline material and absorbance read at 540 nm using a microplate reader. […]

[2] = system: MKN45 human gastric carcinoma cells; assay: MTT cell proliferation assay, serum-containing; conditions: presence of serum, 48 hour MTT assay, FIG. 6
Procedure: as §1, with “Detached cells were transferred to a conical sterile tube and the suspended cells passaged ten times up and down through a 10 ml pipette to produce a single cell suspension suitable for counting.” left out, “haemocytometer. […]” for “haemocytometer.”
as §4

[3] = system: SW480 human colon carcinoma cells; assay: MTT cell proliferation assay, serum-containing; conditions: presence of serum, 48 hour MTT assay, FIG. 6
Procedure: as §1, with “Detached cells were transferred to a conical sterile tube and the suspended cells passaged ten times up and down through a 10 ml pipette to produce a single cell suspension suitable for counting.” left out, “haemocytometer. […]” for “haemocytometer.”
as §4

[4] = system: HT29 human colorectal adenocarcinoma cells; assay: MTT cell proliferation assay, serum-free; conditions: absence of serum, 72 hour MTT assay, FIG. 5c
Procedure: as §1, §2, §3, §4

Substance: 24-NH2: peptide consisting of amino acids 266-289 of GenBank Accession No. O68604; extended version of peptide 22C, synthesized and amidated (DDVRRRVQQETTGHRGRAKDPLYR-NH2; listed as Brevibacterium linens)
- depression of in vitro cell proliferation of colon cancer cells ([1]; MTT assay (72 hours), serum-containing, concentration of 50 μM, FIG. 5a): up to 36%

Substance: DDVRRRVQQETTGHRGRAKDPL (listed as Brevibacterium linens) [22C]
- depression of in vitro cell proliferation of colon cancer cells ([1]; MTT assay containing serum (24 hour assay), concentration of 35 uM, FIG. 5d): up to 54%
- effectiveness compared with other peptides ([1]; serum-supplemented culture media, FIG. 5d and FIG. 5a): more effective than peptide 14C and peptide 8C; also recorded: more effective than the 24-NH2 peptide
- inhibition of proliferation of MKN45 cells [2]: inhibit proliferation of SW480 and MKN45 cells to a similar degree as for HT29 cells
- inhibition of proliferation of SW480 cells [3]: inhibit proliferation of SW480 and MKN45 cells to a similar degree as for HT29 cells
- inhibition of growth of HT29 colon cancer cells [4]: inhibited the growth

Substance: H-DDVRRRVQQETTGH-COOH (H-DDVRRRVQQETTGH-OH) [14C, 14 mer derivative of 22C containing the TAT-like motif]
- inhibition of growth of HT29 colon cancer cells [4]: inhibited the growth

Substance: RGRAKDPL [8C]
- inhibition of growth of HT29 colon cancer cells [4]: inhibited the growth
